US12221417B2, “Salt of omecamtiv mecarbil and process for preparing salt” (Cytokinetics, Inc., priority 2013, dated 2025)
Structures can show the parent of a compound that is named as a salt.

Legend:
[1] = Water solubility (24 hour slurry experiment); details: pH 3.8, water, thermodynamic from solid
[2] = Dynamic vapor sorption (moisture balance); format: physicochemical
Description: Moisture balance data was collected using a VTI SGA 100 symmetrical vapor sorption analyzer. Relative humidity was varied in increments of 5%, between 5% and 95% relative humidity during the adsorption run, and from 95% to 5% relative humidity during the desorption run. Equilibrium criteria was set at 0.01% weight change in 1 minute with a max equilibrium time of 180 minutes. Approximately 1-15 mg of sample was used.

[3] = pH 3.5
physchem = details: pH 3.5, water, thermodynamic from solid

SMILES: COC(=O)N1CCN(Cc2cccc(NC(=O)Nc3ccc(C)nc3)c2F)CC1 [dihydrochloride salt, omecamtiv mecarbil dihydrochloride hydrate]
- solubility [1]: > 40 mg/mL

SMILES: COC(=O)N1CCN(Cc2cccc(NC(=O)Nc3ccc(C)nc3)c2F)CC1 [Form A, omecamtiv mecarbil dihydrochloride hydrate]
- weight change, dynamic vapor sorption ([2]; above 15% relative humidity, upon reaching 95% relative humidity): ~1.0%
- weight loss, dynamic vapor sorption ([2]; between about 30% and about 5% RH): about 2.7 wt %
- total weight gain, dynamic vapor sorption ([2]; between about 40% and about 95% relative humidity): about 0.55 wt. %
- hygroscopicity ([2]; dynamic vapor sorption): non-hygroscopic
- phase change after the vapor sorption experiment ([2]; examined by XRPD): No phase change
- phase change during the slurry experiment [3]: no phase change
- solubility at 24 h (physchem): > 40 mg/mL
